According to paper PMC6154694, “Absorption, Metabolic Stability, and Pharmacokinetics of Ginger Phytochemicals” (Molecules : A Journal of Synthetic Chemistry and Natural …, 2017):

Columns and labels:
[1] = Mouse pharmacokinetic study of oral GE with and without ketoconazole, plasma with and without β-glucuronidase treatment; type: in vivo, male mice (C57BL6J); details: for Concentration Ratio (Total/Free) of GE Phenolics: GE administered group; for Concentration Ratio (Total/Free) of GE Phenolics / concentration at 0 h / concentration at 0.087 h / concentration at 0.167 h / concentration at 0.25 h / concentration at 0.5 h / concentration at 1 h / concentration at 2 h / concentration at 3 h / concentration at 4 h / concentration at 6 h / concentration at 8 h / concentration at 12 h: mouse plasma; for AUC(0-t) / Cmax / Tmax / concentration at 0 h / concentration at 0.087 h / concentration at 0.167 h / concentration at 0.25 h / concentration at 0.5 h / concentration at 1 h / concentration at 2 h / concentration at 3 h / concentration at 4 h / concentration at 6 h / concentration at 8 h / concentration at 12 h: male, C57BL6J; for AUC(0-t) / Cmax / Tmax: mouse, plasma, po, 250 mg/kg
Method: A solution formulation of GE was prepared by using 5% ethanol, 5% Tween 80, 40% polyethylene glycol, and 50% corn oil. The dose volume was 10 mL/kg and the dose administered was 250 mg/kg GE.
Pharmacokinetic study in male mice (C57BL6J, Harlan Laboratories, Indianapolis, IN, USA) was run with 36 animals in each group at a GE dose of 250 mg/kg with a dose volume of 10 mL/kg. One group was given GE alone and in the second group GE was co-administered with KTZ (50 mg/kg). A terminal sampling design was used to collect blood samples at 0 (pre-dose), 0.08, 0.16, 0.25, 0.5, 1, 2, 3, 4, 6, 8, and 12 h. At each time, 1 mL of blood was collected in ethylenediaminetetraacetic acid di-potassium salt (K2EDTA) tubes (BD Biosciences, Franklin Lakes, NJ, USA). Plasma was separated by centrifugation of samples at 4000 rpm for 10 min and stored below −60 °C till bioanalysis. All experiments were performed with approval from the Institutional Animal Care and Use Committee (IACUC, approval code: A14031). All animals were acclimatized for five days before dosing in the experimental area. Food and water was provided ad libitum throughout the study period. Animals were marked and housed (three per cage, n = 36 per group) in polypropylene cages and maintained in controlled environmental conditions with 12 h light and dark cycles. The temperature and humidity of the room was maintained between 22 ± 3 °C and 30% to 50%, respectively, and approximately 10–12 fresh air change cycles per hour.
To confirm the presence of GE glucuronide conjugates, plasma (100 μL) was treated with βgd (20 μL, 500 units) and incubated at 37 °C for 1 h. Each sample was analyzed twice with and without β-gd treatment. Samples without gde treatment were diluted with 20 μL of buffer. Total (conjugated + free) and free ginger phenolics data were reported following bioanalysis.
All in vitro and in vivo samples were processed by protein precipitation method. An aliquot (100 μL) of the sample was spiked with 200 μL of acetonitrile containing dihydrocapsaicin as internal standard (IS) and vortex mixed for 3 min. The tubes were centrifuged at 12,000 rpm for 10 min and an aliquot of supernatant was transferred into autosampler vials for analysis. The stock solutions of 6G, 8G, 10G, and 6S were prepared in ACN/water (70:30) at 1 mg/mL. A calibration curve (CC) range of 2–2000 ng/mL was employed for the quantification of analytes and IS concentration was 150 ng/mL for each analysis. The CC consisted of blank, blank with IS and seven non-zero calibration standards. The calibration standards were within ±15% of the nominal concentration and lower limit of quantification was within ±20% of nominal. All samples were analyzed using liquid chromatography tandem mass spectrometry (LC-MS/MS) method (Agilent 6410 series, Santa Clara, CA, USA). A positive ionization mode with multiple reaction monitoring (MRM, m/z Q1/Q3) of 6G (m/z 277.1/177.1, retention time (RT) 2.0 min), 8G (m/z 305.1/177.1, RT 4.0 min), 10G (m/z 333.1/177.1, RT 7.7 min), 6S (m/z 277.1/137.1, RT 5.1 min), and IS (m/z 308.2/137.1, RT 3.4 min) was employed. The ion spray voltage was set at 3500 V, ionization temperature was set to 300 °C and drying gas flow rate was 10 L/min. Data acquisition and quantitation were performed using Mass Hunter software (Agilent Technologies, Wilmington, DE, USA). Separation was achieved using HP1100 series LC (Agilent Technologies) with an Agilent Zorbax reversed-phase (SB-C18, 2.1 × 50 mm, 5.0 μm) column. A gradient method was employed to separate the individual GE phenolics using mobile phase A (0.1% formic acid in water) and mobile phase B (Acetonitrile). The gradient elution method with 50% B at 0 min, 90% B at 5 min, held for 2.1 min, back to 50% B at 7.1 min with a flow rate of 0.2 mL/min. An injection volume of 2 μL was used for analysis. […]

[2] = Liver microsomal stability, dog; type: in vitro ADME, Beagle dog; details: protein 0.5 mg/mL; for remaining at 0.5 h, 10 µM: Beagle, pooled liver microsomes, pH 7.4, substrate 10 µM, n = 2, read-out: % Remaining at 30 min; for Intrinsic Clearance: dog liver microsomes, substrate 10 µM, 45 mg protein/g liver
Method: Pooled liver microsomes from CD1 mouse, IGS Sprague-Dawley rat, Beagle dog, and mixed gender human were used for assays. Incubations (1 mL) consisted of liver microsomes (0.5 mg/mL), NADPH (1 mM) and 100 mM sodium phosphate buffer (pH 7.4). Following pre-incubation (10 min, 37 °C), reactions were initiated by spiking ACN/DMSO (80:20) stock solutions of GE phenolics (5 μL, 10 μM). Samples (100 μL) were withdrawn at 0, 5, 10, 15, 20 and 30 min and quenched with 200 μL acetonitrile containing internal standard. Concomitant NADPH-free control incubations were prepared similarly.

[3] = +KTZ +βgd, reference GE group co-administered with KTZ untreated with βgd
[4] = +KTZ +βgd, reference GE group untreated with βgd
[5] = +KTZ −βgd, reference GE group untreated with βgd
[6] = 250 mg/kg GE + 50 mg/kg KTZ oral, +KTZ −βgd
[7] = 250 mg/kg GE oral, 0.087 h, −βgd
[8] = 250 mg/kg GE oral, 0.167 h, −βgd
[9] = 250 mg/kg GE oral, 0.25 h, −βgd
[10] = 250 mg/kg GE with 50 mg/kg ketoconazole oral, 0 h, −βgd
[11] = 250 mg/kg GE with 50 mg/kg ketoconazole oral, 0.087 h, −βgd
[12] = 250 mg/kg GE with 50 mg/kg ketoconazole oral, 0.167 h, −βgd
[13] = 250 mg/kg GE with 50 mg/kg ketoconazole oral, 0.25 h, −βgd
[14] = 250 mg/kg GE with 50 mg/kg ketoconazole oral, 0.5 h, −βgd
[15] = 250 mg/kg GE with 50 mg/kg ketoconazole oral, 1 h, −βgd
[16] = 250 mg/kg GE with 50 mg/kg ketoconazole oral, 2 h, −βgd
[17] = 250 mg/kg GE with 50 mg/kg ketoconazole oral, 3 h, −βgd
[18] = 250 mg/kg GE with 50 mg/kg ketoconazole oral, 4 h, −βgd
[19] = 250 mg/kg GE with 50 mg/kg ketoconazole oral, 6 h, −βgd
[20] = 250 mg/kg GE with 50 mg/kg ketoconazole oral, 8 h, −βgd
[21] = 250 mg/kg GE with 50 mg/kg ketoconazole oral, 12 h, −βgd

## CCCCC/C=C/C(=O)CCc1ccc(O)c(OC)c1 [6S, 6-shogaol]
[1]; [3]
  AUClast Ratio: 14
[1]; [4]
  AUClast Ratio: 110
[1]; [5]
  AUClast Ratio: 8
[1]; 0 h
  Concentration Ratio (Total/Free) of GE Phenolics: 0
[1]; 0.087 h
  Concentration Ratio (Total/Free) of GE Phenolics: 48
[1]; 0.167 h
  Concentration Ratio (Total/Free) of GE Phenolics: 19
[1]; 0.25 h
  Concentration Ratio (Total/Free) of GE Phenolics: 0
[1]; 0.5 h
  Concentration Ratio (Total/Free) of GE Phenolics: 83
[1]; 1 h
  Concentration Ratio (Total/Free) of GE Phenolics: 1
[1]; 2 h
  Concentration Ratio (Total/Free) of GE Phenolics: 16
[1]; 3 h
  Concentration Ratio (Total/Free) of GE Phenolics: 0
[1]; 4 h
  Concentration Ratio (Total/Free) of GE Phenolics: 0
[1]; 6 h
  Concentration Ratio (Total/Free) of GE Phenolics: 0
[1]; 8 h
  Concentration Ratio (Total/Free) of GE Phenolics: 0
[1]; 12 h
  Concentration Ratio (Total/Free) of GE Phenolics: 0
[1]; 250 mg/kg GE oral, −βgd
  AUC(0-t): 1.92 ng·h/mL
  Cmax: 3.88 ng/mL
  Tmax: 10 min
[1]; [6]
  AUC(0-t): 15.1 ng·h/mL
  Cmax: 12.4 ng/mL
  Tmax: 60 min
[1]; 250 mg/kg GE oral, 0 h, −βgd
  concentration at 0 h: 0 ng/mL
[1]; [7]
  concentration at 0.087 h: 3.17 ± 2.56 ng/mL
[1]; [8]
  concentration at 0.167 h: 4.04 ± 5.37 ng/mL
[1]; [9]
  concentration at 0.25 h: 0.39 ± 0.55 ng/mL
[1]; 250 mg/kg GE oral, 0.5 h, −βgd
  concentration at 0.5 h: 1.26 ± 1.78 ng/mL
[1]; 250 mg/kg GE oral, 1 h, −βgd
  concentration at 1 h: 0.67 ± 0.95 ng/mL
[1]; 250 mg/kg GE oral, 2 h, −βgd
  concentration at 2 h: 0.38 ± 0.54 ng/mL
[1]; 250 mg/kg GE oral, 3 h, −βgd
  concentration at 3 h: 0 ng/mL
[1]; 250 mg/kg GE oral, 4 h, −βgd
  concentration at 4 h: 0 ng/mL
[1]; 250 mg/kg GE oral, 6 h, −βgd
  concentration at 6 h: 0 ng/mL
[1]; 250 mg/kg GE oral, 8 h, −βgd
  concentration at 8 h: 0.05 ± 0.08 ng/mL
[1]; 250 mg/kg GE oral, 12 h, −βgd
  concentration at 12 h: 0.37 ± 0.23 ng/mL
[1]; [10]
  concentration at 0 h: 0 ng/mL
[1]; [11]
  concentration at 0.087 h: 0.05 ± 0.07 ng/mL
[1]; [12]
  concentration at 0.167 h: 0.94 ± 1.33 ng/mL
[1]; [13]
  concentration at 0.25 h: 0 ng/mL
[1]; [14]
  concentration at 0.5 h: 18600 ng/mL
[1]; [15]
  concentration at 1 h: 12.5 ± 17.6 ng/mL
[1]; [16]
  concentration at 2 h: 75900 ng/mL
[1]; [17]
  concentration at 3 h: 2.33 ± 3.3 ng/mL
[1]; [18]
  concentration at 4 h: 0 ng/mL
[1]; [19]
  concentration at 6 h: 0 ng/mL
[1]; [20]
  concentration at 8 h: 0 ng/mL
[1]; [21]
  concentration at 12 h: 0 ng/mL
[2]
  remaining at 0.5 h, 10 µM: 9%
  Intrinsic Clearance: 29.9 mL/min/g Liver

## CCCCCCCC(O)CC(=O)CCc1ccc(O)c(OC)c1 (stereo not shown) [8G, 8-gingerol]
[1]; [3]
  AUClast Ratio: 23
[1]; [4]
  AUClast Ratio: 1330
[1]; [5]
  AUClast Ratio: 59
[1]; 0 h
  Concentration Ratio (Total/Free) of GE Phenolics: 0
[1]; 0.087 h
  Concentration Ratio (Total/Free) of GE Phenolics: 532
[1]; 0.167 h
  Concentration Ratio (Total/Free) of GE Phenolics: 439
[1]; 0.25 h
  Concentration Ratio (Total/Free) of GE Phenolics: 653
[1]; 0.5 h
  Concentration Ratio (Total/Free) of GE Phenolics: 948
[1]; 1 h
  Concentration Ratio (Total/Free) of GE Phenolics: 16
[1]; 2 h
  Concentration Ratio (Total/Free) of GE Phenolics: 44
[1]; 3 h
  Concentration Ratio (Total/Free) of GE Phenolics: 29
[1]; 4 h
  Concentration Ratio (Total/Free) of GE Phenolics: 14
[1]; 6 h
  Concentration Ratio (Total/Free) of GE Phenolics: 23
[1]; 8 h
  Concentration Ratio (Total/Free) of GE Phenolics: 0
[1]; 12 h
  Concentration Ratio (Total/Free) of GE Phenolics: 0
[1]; [6]
  AUC(0-t): 59.1 ng·h/mL
  Cmax: 45.7 ng/mL
  Tmax: 30 min
[1]; 250 mg/kg GE oral, 0 h, −βgd
  concentration at 0 h: 0 ng/mL
[1]; [7]
  concentration at 0.087 h: 0.58 ± 0.45 ng/mL
[1]; [8]
  concentration at 0.167 h: 0.2 ± 0.14 ng/mL
[1]; [9]
  concentration at 0.25 h: 0.11 ± 0.05 ng/mL
[1]; 250 mg/kg GE oral, 0.5 h, −βgd
  concentration at 0.5 h: 0.23 ± 0.08 ng/mL
[1]; 250 mg/kg GE oral, 1 h, −βgd
  concentration at 1 h: 0.42 ± 0.42 ng/mL
[1]; 250 mg/kg GE oral, 2 h, −βgd
  concentration at 2 h: 0.43 ± 0.11 ng/mL
[1]; 250 mg/kg GE oral, 3 h, −βgd
  concentration at 3 h: 0.81 ± 0.66 ng/mL
[1]; 250 mg/kg GE oral, 4 h, −βgd
  concentration at 4 h: 0.51 ± 0.33 ng/mL
[1]; 250 mg/kg GE oral, 6 h, −βgd
  concentration at 6 h: 0.49 ± 0.3 ng/mL
[1]; 250 mg/kg GE oral, 8 h, −βgd
  concentration at 8 h: 0.57 ± 0.23 ng/mL
[1]; 250 mg/kg GE oral, 12 h, −βgd
  concentration at 12 h: 0.1 ± 0.05 ng/mL
[1]; [10]
  concentration at 0 h: 0 ng/mL
[1]; [11]
  concentration at 0.087 h: 0.48 ± 0.2 ng/mL
[1]; [12]
  concentration at 0.167 h: 0.63 ± 0.12 ng/mL
[1]; [13]
  concentration at 0.25 h: 6.93 ± 9.15 ng/mL
[1]; [14]
  concentration at 0.5 h: 7560 ng/mL
[1]; [15]
  concentration at 1 h: 17.9 ± 19.1 ng/mL
[1]; [16]
  concentration at 2 h: 16300 ng/mL
[1]; [17]
  concentration at 3 h: 11.7 ± 7.35 ng/mL
[1]; [18]
  concentration at 4 h: 2.25 ± 1.56 ng/mL
[1]; [19]
  concentration at 6 h: 3.71 ± 2.18 ng/mL
[1]; [20]
  concentration at 8 h: 1.17 ± 0.11 ng/mL
[1]; [21]
  concentration at 12 h: 0.67 ± 0.17 ng/mL
[2]
  remaining at 0.5 h, 10 µM: 6%
  Intrinsic Clearance: 14.0 mL/min/g Liver
